Laboratory results: patent publication US20220323427A1, “SOMATOSTATIN RECEPTOR TYPE 5 AGONIST FOR THE TREATMENT OF HYPERINSULINISM” (Crinetics Pharmaceuticals, Inc., priority 2021, published 2022)

Key:
Type in all cases: in vivo, human
[1] = test system: sulfonylurea-induced hyperinsulinism; assay: Sulfonylurea (glibenclamide) challenge and euglycemic clamp, SAD; details: single dose 30 mg or 60 mg
Description: SAD 1b/Part 1b: ascending single dose, randomized, placebo-controlled, double-blind; up to 3 cohorts, n=8/cohort; subjects in SAD 1b will undergo an SU challenge and euglycemic clamp procedure. Doses are 30 mg or 60 mg.
In SAD 1b and the MAD, subjects will undergo an SU challenge in the setting of a euglycemic clamp procedure. Sulfonylurea drugs act to close KATP channel of the pancreatic β-cell, stimulating endogenous insulin secretion. Given that the majority (50%) of patients with congenital HI harbor a mutation in the KATP channel, the SU challenge models this genetic form of HI in healthy volunteers. Intravenous glucose will be used during the euglycemic clamp to maintain glucose within a target range. […] The SU challenge cohorts in SAD 1b will assess the ability of a single dose of Compound 1 to reduce or prevent SU-induced glucose lowering as measured by reduced IV glucose infusion (reduced glucose “support”). IV glucose requirements will be assessed as a glucose infusion rate, or GIR (mg dextrose/kg body weight/minute). In the MAD, the durability of the Compound 1 effect will be measured by assessing the GIR required to maintain euglycemia during the SU challenge after 10 days of Compound 1 dosing compared to the baseline SU challenge in the absence (predose) of Compound 1. […]

[2] = MAD study safety and tolerability; details: QD 30, 60 and 120 mg/day for 10 days
Description: (§1) MAD/Part 2: multiple ascending dose, randomized, placebo-controlled, double-blind; up to 5 cohorts, n=9/cohort; subjects in MAD will receive Compound 1 or the placebo. Subjects will undergo a mixed meal tolerance test (MMTT) and an SU challenge and euglycemic clamp procedure. The doses will not exceed the doses in the SAD. Doses will escalate from 30 mg to 120 mg.
To evaluate the safety and tolerability of single and multiple doses of Compound 1.

[3] = MAD study pharmacokinetics
Description: as §1

[4] = test system: incretin-induced insulin secretion; assay: Mixed meal tolerance test (MMTT), MAD; details: Day 6
Description: An MMTT will be conducted during the MAD study to assess the impact of Compound 1 on incretin-induced insulin secretion. This will be conducted at baseline (before study drug dosing) in the MAD and at Day 6 at which Compound 1 is predicted to be at steady state.
The purpose of the MMTT is to evaluate the effect of Compound 1 on plasma insulin in response to multiple fuel sources (protein, fat) and to evaluate the impact on incretin-induced insulin secretion. Subjects are to fast at least 10 hours overnight until ingestion of the mixed meal (which is to occur approximately 4 hours after study drug dosing), and then restrict further food intake until the end of the MMTT.
Start the MMTT (i.e., drink the mixed meal) on Day −1 and Day 6 at 4 hours (±30 minutes) post-study drug dosing (i.e., Time 240 minutes) or at nominal time. The total duration of the MMTT will be approximately 3.5 hours from when the first pre-drink blood sample is collected until the last MMTT blood sample is collected. The subject is to be in the supine position during the MMTT, except while consuming the mixed meal. The procedure will be as follows:
Collect pre-drink fasting blood samples for measurement of PG, insulin, C-peptide, glucagon, GIP, and GLP-1 at the timepoints specified in (SOA).
At 4 hours after study drug dosing/Time 240 minutes (or nominal time), the subject is to drink 400 mL (2×200-mL bottles) Resource® Energy (Nestlé Health Science) drink (mixed meal) within ≤10 minutes.
Collect post-drink blood samples for measurement of PG, insulin, C-peptide, glucagon, and GLP-1 at the timepoints specified in (SOA). The subject is to not eat or drink (except for water) until the last MMTT blood sample is collected.

[5] = test system: sulfonylurea-induced hyperinsulinism; assay: Sulfonylurea (glibenclamide) challenge and euglycemic clamp, MAD
Description: as §1
In SAD 1b and the MAD, subjects will undergo an SU challenge in the setting of a euglycemic clamp procedure. Sulfonylurea drugs act to close KATP channel of the pancreatic β-cell, stimulating endogenous insulin secretion. Given that the majority (50%) of patients with congenital HI harbor a mutation in the KATP channel, the SU challenge models this genetic form of HI in healthy volunteers. Intravenous glucose will be used during the euglycemic clamp to maintain glucose within a target range. In the presence of an SU, the amount of intravenous (IV) glucose required to maintain a target glucose will increase, similar to patients with congenital HI who require supplemental glucose. The SU challenge cohorts in SAD 1b will assess the ability of a single dose of Compound 1 to reduce or prevent SU-induced glucose lowering as measured by reduced IV glucose infusion (reduced glucose “support”). IV glucose requirements will be assessed as a glucose infusion rate, or GIR (mg dextrose/kg body weight/minute). In the MAD, the durability of the Compound 1 effect will be measured by assessing the GIR required to maintain euglycemia during the SU challenge after 10 days of Compound 1 dosing compared to the baseline SU challenge in the absence (predose) of Compound 1.
Glibenclamide will be used for SU-induced hypoglycemia. Based on the available dose-response data in healthy volunteers, 5 mg of glibenclamide will be orally administered to healthy volunteers in selected single- and multi-dose cohorts. The risk of hypoglycemia due to overdose is negligible because continuous glucose monitoring by a clamp device will be performed for each subject and IV infusion of glucose will be provided to maintain each subject's baseline glucose levels.
The euglycemic glucose clamp will be performed by means of a glucose clamp device (ClampArt®; Profil Institut für Stoffwechselforschung, Neuss, Germany). The subject will be connected to the clamp device that will monitor the subject's PG continuously. The device will calculate aggregated PG values every minute. Based on these values, GIR will be calculated every minute using the algorithm implemented into the device and glucose will be administered automatically by the device to keep the PG concentration of the subject constant at a pre-determined target level. Approximately 2 mL of blood per hour will be sampled for glucose monitoring by ClampArt®/the clamp device. […]

[6] = after 10 days of 30, 60 or 120 mg QD

C[C@H](NC(=O)c1cnc(C#N)c(-c2cc(F)cc(F)c2)c1N1CC[C@H](N)C1)C(F)(F)F [Compound 1, 4-[(3S)-3-aminopyrrolidin-1-yl]-6-cyano-5-(3,5-difluorophenyl)-N-[(2S)-1,1,1-trifluoropropan-2-yl]pyridine-3-carboxamide]
Effect on sulfonylurea-induced hyperinsulinism [1]: reversed sulfonylurea-induced hyperinsulinism | Need for IV glucose support (glucose infusion rate) [1]: eliminating the need for IV glucose support | Safety and tolerability [2]: generally safe and well tolerated | Time to steady state trough levels ([3]; QD dosing): ~8 days | Mean accumulation at steady state for AUC ([3]; QD dosing 30-120 mg): 2-2.5 × | Mean accumulation at steady state for Cmaz ([3]; QD dosing 30-120 mg): 1.6-1.8 × | Dose proportionality of exposures ([3]; between 30 and 120 mg doses): Modestly greater than proportional increases in exposures | Increase in plasma glucose AUC in MMTT ([4]; 30 mg QD): ~30% | Increase in plasma glucose AUC in MMTT ([4]; 60 mg QD): ~30% | Increase in plasma glucose AUC in MMTT ([4]; 120 mg QD): ~60% | Insulin and C-peptide in MMTT ([4]; 30-120 mg QD): more sustained suppression of insulin and C-peptide with increasing dose | Plasma glucose during sulfonylurea challenge ([5]; 120 mg cohort, Day 10): mild elevation of plasma glucose | Effect on sulfonylurea-induced hyperinsulinism [5, 6]: reversed sulfonylurea-induced hyperinsulinism | Need for IV glucose support (glucose infusion rate) [5, 6]: eliminating the need for IV glucose support | Insulin and C-peptide levels during sulfonylurea challenge ([5]; day 10, all cohorts): suppressed
